Test results as given in patent publication US20250360132A1, “METHODS OF ADMINISTERING MYOSIN INHIBITORS” (MYOKARDIA, INC., priority 2022, published 2025).

Columns and labels:
[1] = tested on: adults with symptomatic NYHA class II and III obstructive HCM; test: EXPLORER-HCM Phase 3, double-blind, randomized, placebo-controlled trial; assay type: in vivo, human
Experimental: The safety of MAVACAMTEN was evaluated in EXPLORER-HCM, a Phase 3, double-blind, randomized, placebo-controlled trial. Of the 251 adults with obstructive HCM, 123 patients were treated with MAVACAMTEN 2.5-15 mg daily and 128 were treated with placebo.
The efficacy of MAVACAMTEN was evaluated in EXPLORER-HCM (NCT-03470545) a Phase 3, double-blind, randomized, placebo-controlled, multicenter, international, parallel-group trial in 251 adults with symptomatic NYHA class II and III obstructive HCM, LVEF ≥55%, and Valsalva LVOT peak gradient ≥50 mmHg at rest or with provocation.
Patients on dual therapy with beta blocker and calcium channel blocker treatment or monotherapy with disopyramide or ranolazine were excluded. Patients with a known infiltrative or storage disorder causing cardiac hypertrophy that mimicked obstructive HCM, such as Fabry disease, amyloidosis, or Noonan syndrome with left ventricular hypertrophy, were also excluded.
Patients were randomized in a 1:1 ratio to receive either a starting dose of 5 mg of MAVACAMTEN or placebo once daily for 30 weeks. Treatment assignment was stratified by baseline NYHA functional class, baseline use of beta blockers, and type of ergometer (treadmill or exercise bicycle).
All patients were initiated on MAVACAMTEN 5 mg (or matching placebo) once daily, and the dose was periodically adjusted to optimize patient response (decrease in LVOT gradient with Valsalva maneuver) and maintain LVEF ≥50%. The dose was also informed by plasma concentrations of MAVACAMTEN.
The primary composite functional endpoint, assessed at 30 weeks, was defined as the proportion of patients who achieved either improvement of […] (pVO2) by ≥1.5 mL/kg/min plus improvement in NYHA class by at least 1 or improvement of pVO2 by ≥3.0 mL/kg/min plus no worsening in NYHA class.
The treatment effects of MAVACAMTEN on LVOT obstruction, functional capacity, and health status were assessed by change from baseline through Week 30 in post-exercise LVOT peak gradient, change in pVO2, proportion of patients with improvement in NYHA class, Kansas City Cardiomyopathy Questionnaire-23 (KCCQ-23) Clinical Summary Score (CSS), and Hypertrophic Cardiomyopathy Symptom Questionnaire (HCMSQ) Shortness of Breath (SoB) domain score.
Missing data were not imputed to summarize the baseline and change from baseline to Week 30 values. Difference in mean change from baseline between treatment groups was estimated using a mixed model for repeated measures.

[2] = Pharmacokinetics in hepatic impairment; assay type: in vivo, human; conditions: mild (Child-Pugh A) or moderate (Child-Pugh B) hepatic impairment vs normal hepatic function
Source text: No dosage adjustment is required in patients with mild (Child-Pugh A) to moderate (Child-Pugh B) hepatic impairment. […] However, no additional dose adjustment is required in patients with mild to moderate hepatic impairment with the recommended dose titration algorithm and monitoring plan. The effect of severe (Child-Pugh C) hepatic impairment is unknown.
The effect of severe (Child-Pugh C) hepatic impairment is unknown.

CYP1A2 = CYP1A2 (Homo sapiens, UniProt P05177); test: In vitro CYP inhibition; assay type: in vitro ADME
Source text: (§1) Mavacamten is a CYP2B6 inducer.

CYP2B6 = CYP2B6 (Homo sapiens, UniProt P20813); test: In vitro CYP inhibition; assay type: in vitro ADME
Chain of CYP2B6 (P20813 whole entry): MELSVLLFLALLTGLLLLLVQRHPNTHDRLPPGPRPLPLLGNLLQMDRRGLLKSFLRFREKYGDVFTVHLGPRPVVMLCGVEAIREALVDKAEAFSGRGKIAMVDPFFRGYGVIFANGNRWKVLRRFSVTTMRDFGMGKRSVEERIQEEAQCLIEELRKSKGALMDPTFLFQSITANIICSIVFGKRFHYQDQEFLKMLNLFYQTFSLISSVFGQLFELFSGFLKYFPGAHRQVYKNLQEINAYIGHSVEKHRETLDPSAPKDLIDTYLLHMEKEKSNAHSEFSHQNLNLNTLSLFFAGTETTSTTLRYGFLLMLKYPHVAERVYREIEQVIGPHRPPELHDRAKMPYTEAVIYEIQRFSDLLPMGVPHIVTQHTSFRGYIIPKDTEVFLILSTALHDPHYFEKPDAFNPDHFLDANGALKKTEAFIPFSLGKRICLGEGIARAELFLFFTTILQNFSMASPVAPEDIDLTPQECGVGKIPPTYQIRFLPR
Source text: as §1

CYP2C19 = CYP2C19 (Homo sapiens, UniProt P33261); test: In vitro CYP inhibition; assay type: in vitro ADME; conditions: at clinically relevant concentrations
Chain of CYP2C19 (P33261 whole entry): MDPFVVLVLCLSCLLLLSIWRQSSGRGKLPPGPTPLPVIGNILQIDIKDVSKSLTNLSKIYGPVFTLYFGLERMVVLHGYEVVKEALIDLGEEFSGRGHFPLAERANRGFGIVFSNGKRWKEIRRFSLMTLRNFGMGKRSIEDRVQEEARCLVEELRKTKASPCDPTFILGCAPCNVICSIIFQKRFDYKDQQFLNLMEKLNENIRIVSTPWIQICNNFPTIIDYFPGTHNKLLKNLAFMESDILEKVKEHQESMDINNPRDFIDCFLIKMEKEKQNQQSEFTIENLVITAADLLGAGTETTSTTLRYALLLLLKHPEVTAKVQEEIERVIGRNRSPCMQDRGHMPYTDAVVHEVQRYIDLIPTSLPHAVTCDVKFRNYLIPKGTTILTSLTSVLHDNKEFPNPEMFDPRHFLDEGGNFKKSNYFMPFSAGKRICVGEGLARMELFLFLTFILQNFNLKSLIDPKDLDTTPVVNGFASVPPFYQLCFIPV
Source text: as §1

CYP2C8 = CYP2C8 (Homo sapiens, UniProt P10632); test: In vitro CYP inhibition; assay type: in vitro ADME
Chain of CYP2C8 (P10632 whole entry): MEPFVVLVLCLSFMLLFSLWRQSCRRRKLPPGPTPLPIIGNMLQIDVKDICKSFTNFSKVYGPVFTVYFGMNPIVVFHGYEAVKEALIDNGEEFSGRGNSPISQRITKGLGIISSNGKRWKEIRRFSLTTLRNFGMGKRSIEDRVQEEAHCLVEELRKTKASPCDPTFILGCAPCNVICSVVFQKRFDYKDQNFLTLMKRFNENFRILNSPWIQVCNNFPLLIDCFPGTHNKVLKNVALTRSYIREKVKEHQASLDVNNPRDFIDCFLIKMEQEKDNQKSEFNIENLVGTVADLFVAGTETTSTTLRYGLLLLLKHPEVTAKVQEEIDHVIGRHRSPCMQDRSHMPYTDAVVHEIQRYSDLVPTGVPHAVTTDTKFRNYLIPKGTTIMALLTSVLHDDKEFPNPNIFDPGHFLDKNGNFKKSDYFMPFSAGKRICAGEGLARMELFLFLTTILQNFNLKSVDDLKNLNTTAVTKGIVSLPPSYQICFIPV
Source text: as §1

CYP2C9 = CYP2C9 (Homo sapiens, UniProt P11712); test: In vitro CYP inhibition; assay type: in vitro ADME; conditions: at clinically relevant concentrations
Chain of CYP2C9 (P11712 whole entry): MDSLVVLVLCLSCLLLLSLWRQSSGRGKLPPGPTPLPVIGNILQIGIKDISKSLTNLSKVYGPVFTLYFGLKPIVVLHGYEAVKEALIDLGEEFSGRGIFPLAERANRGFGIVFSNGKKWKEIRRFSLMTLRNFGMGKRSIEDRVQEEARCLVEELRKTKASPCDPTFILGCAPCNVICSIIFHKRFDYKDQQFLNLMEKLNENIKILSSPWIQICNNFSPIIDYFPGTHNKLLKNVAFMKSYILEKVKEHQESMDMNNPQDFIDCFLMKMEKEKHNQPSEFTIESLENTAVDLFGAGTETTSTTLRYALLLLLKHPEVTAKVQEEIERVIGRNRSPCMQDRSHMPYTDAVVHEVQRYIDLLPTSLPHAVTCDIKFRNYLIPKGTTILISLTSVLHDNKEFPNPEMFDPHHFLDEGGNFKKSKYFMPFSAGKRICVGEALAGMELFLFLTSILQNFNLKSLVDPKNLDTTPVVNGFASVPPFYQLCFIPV
Source text: as §1

CYP2D6 = CYP2D6 (Homo sapiens, UniProt P10635); test: In vitro CYP inhibition; assay type: in vitro ADME; conditions: at clinically relevant concentrations
Chain of CYP2D6 (P10635 whole entry): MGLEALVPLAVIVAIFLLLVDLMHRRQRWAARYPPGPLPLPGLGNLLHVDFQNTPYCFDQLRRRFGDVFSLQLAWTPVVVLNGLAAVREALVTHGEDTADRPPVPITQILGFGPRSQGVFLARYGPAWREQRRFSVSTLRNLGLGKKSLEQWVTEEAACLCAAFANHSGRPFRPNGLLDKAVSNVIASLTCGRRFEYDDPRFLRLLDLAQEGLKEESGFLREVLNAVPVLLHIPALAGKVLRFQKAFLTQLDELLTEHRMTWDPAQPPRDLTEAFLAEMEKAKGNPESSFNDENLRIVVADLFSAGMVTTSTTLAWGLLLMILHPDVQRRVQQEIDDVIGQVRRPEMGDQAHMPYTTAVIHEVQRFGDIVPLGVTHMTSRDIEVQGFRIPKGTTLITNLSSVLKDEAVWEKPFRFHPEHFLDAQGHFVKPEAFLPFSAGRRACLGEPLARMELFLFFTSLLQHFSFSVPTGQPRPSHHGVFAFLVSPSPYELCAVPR
Source text: as §1

CYP3A4 = CYP3A4 (Homo sapiens, UniProt P08684); test: In vitro CYP inhibition; assay type: in vitro ADME; conditions: at clinically relevant concentrations
Chain of CYP3A4 (P08684 whole entry): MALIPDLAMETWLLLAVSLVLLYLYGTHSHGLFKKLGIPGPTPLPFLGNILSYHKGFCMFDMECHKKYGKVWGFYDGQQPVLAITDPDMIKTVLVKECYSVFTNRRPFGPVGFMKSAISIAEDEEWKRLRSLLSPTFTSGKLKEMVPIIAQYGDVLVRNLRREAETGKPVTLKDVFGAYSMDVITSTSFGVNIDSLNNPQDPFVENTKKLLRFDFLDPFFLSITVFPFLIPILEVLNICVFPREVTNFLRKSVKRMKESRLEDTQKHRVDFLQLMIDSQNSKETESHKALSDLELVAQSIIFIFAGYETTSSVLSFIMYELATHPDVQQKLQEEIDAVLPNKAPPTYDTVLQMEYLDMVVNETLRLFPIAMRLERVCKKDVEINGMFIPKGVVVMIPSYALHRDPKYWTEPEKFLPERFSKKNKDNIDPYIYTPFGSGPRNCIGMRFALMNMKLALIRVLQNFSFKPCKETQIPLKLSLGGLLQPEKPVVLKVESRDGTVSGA
Source text: as §1

P-gp = P-gp (Homo sapiens, UniProt P08183); test: In vitro transporter inhibition; assay type: in vitro ADME
Chain of P-gp (P08183 whole entry): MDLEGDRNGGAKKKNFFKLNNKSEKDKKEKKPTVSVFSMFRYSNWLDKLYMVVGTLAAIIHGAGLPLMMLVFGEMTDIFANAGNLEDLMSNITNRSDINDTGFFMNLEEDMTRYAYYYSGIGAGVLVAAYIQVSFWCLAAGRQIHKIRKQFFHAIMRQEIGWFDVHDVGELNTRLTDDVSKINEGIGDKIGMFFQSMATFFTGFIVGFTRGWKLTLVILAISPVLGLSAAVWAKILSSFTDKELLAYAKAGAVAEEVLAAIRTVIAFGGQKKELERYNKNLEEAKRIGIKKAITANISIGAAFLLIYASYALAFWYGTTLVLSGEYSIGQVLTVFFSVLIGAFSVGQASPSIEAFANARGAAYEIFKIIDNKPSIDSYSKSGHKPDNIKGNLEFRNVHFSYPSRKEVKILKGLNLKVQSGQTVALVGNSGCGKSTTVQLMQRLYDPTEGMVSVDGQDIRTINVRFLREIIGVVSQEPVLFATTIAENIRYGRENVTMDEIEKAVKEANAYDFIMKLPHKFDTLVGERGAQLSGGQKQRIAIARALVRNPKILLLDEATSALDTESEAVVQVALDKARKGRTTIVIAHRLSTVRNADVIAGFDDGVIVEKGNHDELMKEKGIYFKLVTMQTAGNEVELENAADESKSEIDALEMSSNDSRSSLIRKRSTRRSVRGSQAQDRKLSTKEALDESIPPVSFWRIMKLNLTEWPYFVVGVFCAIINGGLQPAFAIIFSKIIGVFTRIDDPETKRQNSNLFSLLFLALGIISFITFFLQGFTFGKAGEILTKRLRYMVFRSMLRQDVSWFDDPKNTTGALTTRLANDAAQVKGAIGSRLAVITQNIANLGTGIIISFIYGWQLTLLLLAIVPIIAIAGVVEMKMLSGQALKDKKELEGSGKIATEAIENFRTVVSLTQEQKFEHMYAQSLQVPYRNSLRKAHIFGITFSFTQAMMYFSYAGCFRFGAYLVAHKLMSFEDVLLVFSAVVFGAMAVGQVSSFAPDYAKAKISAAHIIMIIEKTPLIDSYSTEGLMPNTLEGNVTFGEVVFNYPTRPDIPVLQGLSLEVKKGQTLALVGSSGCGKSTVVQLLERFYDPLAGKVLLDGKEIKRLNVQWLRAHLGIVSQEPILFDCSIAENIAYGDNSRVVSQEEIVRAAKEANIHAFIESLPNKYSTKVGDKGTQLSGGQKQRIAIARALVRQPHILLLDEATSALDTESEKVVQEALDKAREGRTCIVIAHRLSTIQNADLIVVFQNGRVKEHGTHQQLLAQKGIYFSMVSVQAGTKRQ

MATE2-K = MATE2-K (Homo sapiens, UniProt Q86VL8); test: In vitro transporter inhibition; assay type: in vitro ADME
Chain of MATE2-K (Q86VL8 1-566 isoform Q86VL8-3): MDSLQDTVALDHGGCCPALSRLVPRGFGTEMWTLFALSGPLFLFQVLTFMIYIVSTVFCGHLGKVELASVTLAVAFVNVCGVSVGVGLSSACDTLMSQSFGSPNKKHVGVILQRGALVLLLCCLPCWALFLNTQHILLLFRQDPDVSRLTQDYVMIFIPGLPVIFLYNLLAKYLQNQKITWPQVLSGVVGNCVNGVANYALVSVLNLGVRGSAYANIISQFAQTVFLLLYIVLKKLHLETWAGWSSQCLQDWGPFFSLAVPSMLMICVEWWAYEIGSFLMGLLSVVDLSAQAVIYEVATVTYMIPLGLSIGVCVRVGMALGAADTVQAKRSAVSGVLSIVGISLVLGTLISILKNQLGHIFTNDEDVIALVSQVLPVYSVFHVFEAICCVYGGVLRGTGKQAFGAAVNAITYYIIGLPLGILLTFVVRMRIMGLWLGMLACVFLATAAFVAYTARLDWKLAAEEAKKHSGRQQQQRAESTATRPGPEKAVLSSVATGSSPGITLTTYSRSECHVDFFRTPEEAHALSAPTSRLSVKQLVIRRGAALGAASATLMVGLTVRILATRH

rasH2 transgenic mouse = test: 6-month rasH2 transgenic mouse carcinogenicity study; assay type: in vivo

Question: With `CC(C)n1c(=O)cc(N[C@@H](C)c2ccccc2)[nH]c1=O` [mavacamten, (S)-3-Isopropyl-6-((1-phenylethyl)amino)pyrimidine-2,4(1H,3H)-dione] as the compound, how does the “Subgroup analysis of the primary composite functional endpoint” value ([1]; FIG. 17) read?
Answer: consistently favored MAVACAMTEN across all subgroups analyzed

Question: What about the “Adverse reaction: syncope, patients” value ([1]; MAVACAMTEN 2.5-15 mg daily, N=123, placebo 2%) of the same compound?
Answer: 6%

Question: What about the “Adverse reaction: dizziness, patients” value ([1]; MAVACAMTEN 2.5-15 mg daily, N=123, placebo 18%) of the same compound?
Answer: 27%

Question: What about the “Improvement across secondary endpoints vs placebo” value ([1]; Week 30) of the same compound?
Answer: greater improvement compared to the placebo group across all secondary endpoints

Question: What about the “NYHA Class improved ≥1, difference vs placebo” value ([1]; Week 30) of the same compound?
Answer: 34%

Question: And the “Total responders, difference vs placebo (95% CI)” value ([1]; Week 30)?
Answer: 19% (9, 30)

Question: What about the “pVO2 ≥1.5 mL/kg/min and decreased NYHA, difference vs placebo (95% CI)” value ([1]; Week 30) of the same compound?
Answer: 19% (9, 30)

Question: What about the “pVO2 ≥3 mL/kg/min and NYHA not increased, difference vs placebo (95% CI)” value ([1]; Week 30) of the same compound?
Answer: 13% (3, 22)

Question: And the “Change from baseline pVO2 ≥1.5 mL/kg/min and decreased NYHA, number” value ([1]; Week 30, N=123)?
Answer: 41

Question: And the “Change from baseline pVO2 ≥3 mL/kg/min and NYHA not increased, number” value ([1]; Week 30, N=123)?
Answer: 29

Question: What about the “Number with NYHA Class improved ≥1” value ([1]; Week 30, N=123) of the same compound?
Answer: 80

Question: And the “Primary composite functional endpoint, total responders, number” value ([1]; Week 30, N=123)?
Answer: 45

Question: And the “Primary composite functional endpoint, total responders, percent” value ([1]; Week 30, N=123, placebo 17%)?
Answer: 37%

Question: And the “KCCQ-23 CSS, change from baseline, mean” value ([1]; Week 30, n=99, placebo 4)?
Answer: 14

Question: And the “HCMSQ SoB, change from baseline, mean” value ([1]; Week 30, n=108, placebo −1)?
Answer: −3

Question: And the “KCCQ-23 PL, change from baseline, mean” value ([1]; Week 30, placebo 4)?
Answer: 15

Question: What about the “KCCQ-23 TSS, change from baseline, mean” value ([1]; Week 30, placebo 5) of the same compound?
Answer: 12

Question: And the “Change from baseline pVO2 ≥3 mL/kg/min and NYHA not increased, percent” value ([1]; Week 30, placebo 11%)?
Answer: 23%

Question: And the “Change from baseline pVO2 ≥1.5 mL/kg/min and decreased NYHA, percent” value ([1]; Week 30, placebo 14%)?
Answer: 33%

Question: And the “Percent with NYHA Class improved ≥1” value ([1]; Week 30, placebo 31%)?
Answer: (65%)

Question: And the “LVEF outcome after interruption in patients with LVEF <50%” value ([1]; all 7 patients)?
Answer: LVEF recovered following interruption

Question: What about the “Benefit by background beta blocker therapy” value ([1]; attenuated improvement in pVO2) of the same compound?
Answer: smaller in patients on background beta blocker therapy

Question: And the “Post-Exercise LVOT gradient, difference vs placebo” value ([1]; baseline to Week 30)?
Answer: −35 mmHg

Question: What about the “pVO2, difference vs placebo” value ([1]; baseline to Week 30) of the same compound?
Answer: 1.4 mL/kg/min

Question: What about the “Change in pVO2, mean” value ([1]; baseline to Week 30, placebo −0.1) of the same compound?
Answer: 1.4 mL/kg/min

Question: And the “Change in Post-Exercise LVOT gradient, mean” value ([1]; baseline to Week 30, placebo −10)?
Answer: −47 mmHg

Question: What about the “patients who temporarily interrupted their dose due to LVEF <50%” value ([1]; in vivo) of the same compound?
Answer: Three

Question: What about the “patients whose LVEF reduction to <50% was asymptomatic” value ([1]; of the 7 MAVACAMTEN patients) of the same compound?
Answer: 3

Question: What about the “mean (SD) absolute change from baseline in LVEF” value ([1]; over the 30-week treatment period, placebo 0% (7)) of the same compound?
Answer: -4% (8)

Question: What about the “Syncope leading to discontinuation, patients” value ([1]; patients receiving MAVACAMTEN) of the same compound?
Answer: 0.8%

Question: What about the “onset of reduction in LVOT gradient” value ([1]; sustained throughout the 30-week trial) of the same compound?
Answer: reductions in mean resting and provoked (Valsalva) LVOT gradient by Week 4

Question: What about the “patients with reversible reductions in LVEF to <50%, number” value ([1]; while on treatment, N=123) of the same compound?
Answer: 7

Question: What about the “patients with reversible reductions in LVEF to <50%, percent” value ([1]; while on treatment, placebo 2%) of the same compound?
Answer: 6%

Question: And the “Increase in mavacamten exposure (AUC)” value [2]?
Answer: up to 220%

Question: What about the “Inhibition of CYP1A2” value (CYP1A2) of the same compound?
Answer: does not inhibit

Question: And the “Inhibition of CYP2B6” value (CYP2B6)?
Answer: does not inhibit

Question: What about the “Inhibition of CYP2C19” value (CYP2C19) of the same compound?
Answer: not an inhibitor

Question: And the “Inhibition of CYP2C8” value (CYP2C8)?
Answer: does not inhibit

Question: What about the “Inhibition of CYP2C9” value (CYP2C9) of the same compound?
Answer: not an inhibitor

Question: And the “Inhibition of CYP2D6” value (CYP2D6)?
Answer: not an inhibitor

Question: And the “Inhibition of CYP3A4” value (CYP3A4)?
Answer: not an inhibitor

Question: What about the “Inhibition of P-gp” value (P-gp) of the same compound?
Answer: does not inhibit

Question: What about the “Inhibition of MATE2-K” value (MATE2-K) of the same compound?
Answer: does not inhibit

Question: What about the Carcinogenicity (rasH2 transgenic mouse; 6-month, up to 2.0 mg/kg/day in males and 3.0 mg/kg/day in females) of the same compound?
Answer: no evidence of carcinogenicity

Question: What about the “Exposure (AUC) compared to humans at the MRHD” value (rasH2 transgenic mouse; females, 3.0 mg/kg/day) of the same compound?
Answer: 3 fold

Question: And the “Exposure (AUC) compared to humans at the MRHD” value (rasH2 transgenic mouse; males, 2.0 mg/kg/day)?
Answer: 1.8 fold
